Results as given in ChEMBL document CHEMBL4828703, “Structure-activity relationship study of THZ531 derivatives enables the discovery of BSJ-01-175 as a dual CDK12/13 covalent inhibitor with efficacy in Ewing sarcoma” (Eur J Med Chem, 2021).
Calls of active or inactive are those of the source. The calls are words filed in the database; no cut-off is given here.

Legend:
CDK12/Cyclin K = CDK12/Cyclin K (Homo sapiens, UniProt Q9NYV4); test: Inhibition of human recombinant CDK12/CyclinK assessed as reduction in substrate phosphorylation using His-c-Myc as substrate preincubated with enzyme for 5 mins followed by substrate addition for 15 mins in presence of [gamma 32P-ATP] by radioactive kinase assay; assay type: protein-complex assay
[1] = biological target: Ribosomal protein S6 kinase alpha-2 (Homo sapiens) (UniProt Q15349); test: Inhibition of ADP(ATP)-biotin probe binding to RSK3 domain 1 in human Kelly cells at 1 uM incubated for 6 hrs by KiNativ profiling analysis; assay type: cell-based
[2] = Volume of distribution at steady state in Swiss albino mouse at 3 mg/kg, iv measured upto 24 hrs by LC-MS/MS analysis; assay type: ADME, organism-based; details: in vivo
[3] = biological target: T1, Cyclin-dependent kinase 12/13 (Homo sapiens) (UniProt Q14004+Q9NYV4); test: Inhibition of CDK12/13 in human jurkat cells assessed as reduction in RNA polymerase 2 CTD phosphorylation at Ser2 residue at 2.5 uM measured after 6 hrs by immunoblotting analysis; assay type: cell-based
[4] = biological target: T2, DNA-dependent protein kinase catalytic subunit (Homo sapiens, UniProt P78527); test: Inhibition of human DNAPK by Invitrogen ADAPTA or Z'LYTE biochemical kinase assay
T2 sequence (P78527 whole entry): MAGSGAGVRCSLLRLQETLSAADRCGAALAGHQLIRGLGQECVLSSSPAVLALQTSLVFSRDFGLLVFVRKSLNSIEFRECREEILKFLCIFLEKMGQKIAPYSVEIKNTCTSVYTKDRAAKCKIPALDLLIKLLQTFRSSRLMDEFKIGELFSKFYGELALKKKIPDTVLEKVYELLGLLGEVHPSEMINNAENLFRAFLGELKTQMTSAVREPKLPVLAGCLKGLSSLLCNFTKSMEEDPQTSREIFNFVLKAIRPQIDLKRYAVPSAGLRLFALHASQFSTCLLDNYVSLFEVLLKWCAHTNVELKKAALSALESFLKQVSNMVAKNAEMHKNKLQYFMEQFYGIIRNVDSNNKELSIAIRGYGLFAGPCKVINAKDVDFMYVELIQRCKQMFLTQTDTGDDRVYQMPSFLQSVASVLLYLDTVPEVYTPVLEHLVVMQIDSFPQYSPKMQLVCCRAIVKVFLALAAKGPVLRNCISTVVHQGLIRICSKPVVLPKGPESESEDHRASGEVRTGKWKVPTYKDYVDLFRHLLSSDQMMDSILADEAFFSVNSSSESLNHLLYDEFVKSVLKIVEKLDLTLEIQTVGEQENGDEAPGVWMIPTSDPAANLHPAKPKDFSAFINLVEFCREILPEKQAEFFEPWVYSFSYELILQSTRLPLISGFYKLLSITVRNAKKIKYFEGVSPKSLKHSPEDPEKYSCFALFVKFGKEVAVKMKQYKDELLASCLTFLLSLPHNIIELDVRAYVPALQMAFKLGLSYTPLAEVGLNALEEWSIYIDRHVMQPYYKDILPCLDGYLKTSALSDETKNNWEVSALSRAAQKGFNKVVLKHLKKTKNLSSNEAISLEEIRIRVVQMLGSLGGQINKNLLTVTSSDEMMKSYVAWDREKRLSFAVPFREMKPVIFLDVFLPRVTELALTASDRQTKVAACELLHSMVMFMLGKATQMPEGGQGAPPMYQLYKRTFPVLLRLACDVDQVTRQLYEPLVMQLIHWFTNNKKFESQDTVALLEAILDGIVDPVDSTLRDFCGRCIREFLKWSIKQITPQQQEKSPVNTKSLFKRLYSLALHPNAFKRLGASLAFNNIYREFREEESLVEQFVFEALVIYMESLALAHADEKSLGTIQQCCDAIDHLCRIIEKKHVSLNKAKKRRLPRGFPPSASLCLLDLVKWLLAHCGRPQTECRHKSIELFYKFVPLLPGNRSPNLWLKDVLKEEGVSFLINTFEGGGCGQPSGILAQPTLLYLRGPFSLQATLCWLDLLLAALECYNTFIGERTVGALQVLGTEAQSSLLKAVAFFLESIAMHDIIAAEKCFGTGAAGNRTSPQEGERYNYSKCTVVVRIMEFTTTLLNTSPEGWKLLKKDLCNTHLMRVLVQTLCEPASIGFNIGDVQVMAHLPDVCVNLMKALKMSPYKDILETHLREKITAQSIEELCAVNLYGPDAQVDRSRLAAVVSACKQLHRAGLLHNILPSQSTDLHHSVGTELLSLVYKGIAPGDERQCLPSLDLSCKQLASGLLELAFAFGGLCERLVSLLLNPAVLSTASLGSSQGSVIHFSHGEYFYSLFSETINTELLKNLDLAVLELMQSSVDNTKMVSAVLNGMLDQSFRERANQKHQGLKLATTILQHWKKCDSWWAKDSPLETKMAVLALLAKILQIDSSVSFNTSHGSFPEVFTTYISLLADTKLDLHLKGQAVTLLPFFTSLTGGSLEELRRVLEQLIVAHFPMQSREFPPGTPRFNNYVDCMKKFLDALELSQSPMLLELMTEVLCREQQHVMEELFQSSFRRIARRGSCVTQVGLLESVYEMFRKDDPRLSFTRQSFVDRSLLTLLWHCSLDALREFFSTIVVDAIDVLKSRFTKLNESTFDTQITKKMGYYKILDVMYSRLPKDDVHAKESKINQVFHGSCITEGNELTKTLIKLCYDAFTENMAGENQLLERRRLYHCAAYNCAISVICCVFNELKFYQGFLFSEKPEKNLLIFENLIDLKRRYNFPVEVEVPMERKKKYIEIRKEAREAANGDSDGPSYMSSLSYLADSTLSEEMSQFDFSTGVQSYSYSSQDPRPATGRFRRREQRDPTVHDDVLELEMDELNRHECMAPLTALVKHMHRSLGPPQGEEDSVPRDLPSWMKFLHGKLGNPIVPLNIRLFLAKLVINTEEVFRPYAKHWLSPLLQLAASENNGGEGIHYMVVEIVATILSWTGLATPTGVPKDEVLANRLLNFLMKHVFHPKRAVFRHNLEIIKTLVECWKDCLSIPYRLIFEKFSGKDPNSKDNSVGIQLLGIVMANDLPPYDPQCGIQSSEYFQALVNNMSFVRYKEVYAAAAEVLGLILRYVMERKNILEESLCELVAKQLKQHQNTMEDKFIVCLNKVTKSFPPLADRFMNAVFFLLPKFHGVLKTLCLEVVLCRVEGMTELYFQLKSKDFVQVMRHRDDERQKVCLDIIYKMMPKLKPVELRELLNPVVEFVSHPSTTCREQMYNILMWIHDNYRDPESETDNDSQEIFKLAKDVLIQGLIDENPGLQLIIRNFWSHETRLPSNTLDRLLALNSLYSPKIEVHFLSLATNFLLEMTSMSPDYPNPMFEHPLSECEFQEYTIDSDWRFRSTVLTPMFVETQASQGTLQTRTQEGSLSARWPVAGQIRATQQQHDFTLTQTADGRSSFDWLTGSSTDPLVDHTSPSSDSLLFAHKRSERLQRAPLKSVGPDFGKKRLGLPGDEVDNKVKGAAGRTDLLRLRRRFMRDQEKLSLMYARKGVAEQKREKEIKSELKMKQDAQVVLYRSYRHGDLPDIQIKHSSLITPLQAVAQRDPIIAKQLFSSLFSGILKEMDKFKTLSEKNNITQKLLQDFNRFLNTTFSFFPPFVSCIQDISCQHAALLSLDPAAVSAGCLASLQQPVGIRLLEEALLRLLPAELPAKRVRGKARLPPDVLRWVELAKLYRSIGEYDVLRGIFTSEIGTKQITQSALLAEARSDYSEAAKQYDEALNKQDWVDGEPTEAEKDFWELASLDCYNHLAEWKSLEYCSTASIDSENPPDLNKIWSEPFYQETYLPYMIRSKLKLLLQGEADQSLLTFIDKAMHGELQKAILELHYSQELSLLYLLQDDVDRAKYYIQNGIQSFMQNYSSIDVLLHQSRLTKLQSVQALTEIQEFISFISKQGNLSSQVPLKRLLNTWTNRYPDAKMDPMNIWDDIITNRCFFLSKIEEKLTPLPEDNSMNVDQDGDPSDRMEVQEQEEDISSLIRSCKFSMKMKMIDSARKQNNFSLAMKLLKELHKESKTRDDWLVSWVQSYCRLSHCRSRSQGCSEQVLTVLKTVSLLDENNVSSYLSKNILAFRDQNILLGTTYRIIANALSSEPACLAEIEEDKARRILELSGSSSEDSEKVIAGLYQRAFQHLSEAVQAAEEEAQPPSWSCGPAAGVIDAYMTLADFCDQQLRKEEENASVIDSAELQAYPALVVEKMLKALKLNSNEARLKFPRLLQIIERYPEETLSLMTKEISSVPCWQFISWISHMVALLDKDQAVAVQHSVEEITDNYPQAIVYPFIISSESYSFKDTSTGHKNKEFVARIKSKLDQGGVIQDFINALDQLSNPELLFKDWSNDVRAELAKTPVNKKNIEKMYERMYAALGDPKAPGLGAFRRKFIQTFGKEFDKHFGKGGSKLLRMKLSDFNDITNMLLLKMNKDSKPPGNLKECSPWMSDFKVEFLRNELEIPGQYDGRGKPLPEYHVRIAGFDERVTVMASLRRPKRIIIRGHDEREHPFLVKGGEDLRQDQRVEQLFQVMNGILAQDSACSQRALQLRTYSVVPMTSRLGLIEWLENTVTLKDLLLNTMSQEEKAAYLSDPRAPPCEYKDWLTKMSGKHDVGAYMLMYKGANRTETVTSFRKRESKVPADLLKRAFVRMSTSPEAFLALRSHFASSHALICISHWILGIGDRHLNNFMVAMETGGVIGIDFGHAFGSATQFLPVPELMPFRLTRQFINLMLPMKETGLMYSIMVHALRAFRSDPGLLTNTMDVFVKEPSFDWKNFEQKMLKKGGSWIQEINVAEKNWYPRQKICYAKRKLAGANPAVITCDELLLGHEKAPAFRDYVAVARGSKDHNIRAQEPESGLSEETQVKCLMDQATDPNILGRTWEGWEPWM

[5] = Toxicity in nude mouse xenografted with human TC71 cells assessed as body weight loss at 10 mg/kg, ip for 21 days; assay type: organism-based; details: in vivo, 504 h, time 21 day
[6] = Downregulation of RNA polymerase 2 in human Jurkat cells at 0.5 uM measured after 6 hrs by immunoblotting analysis; assay type: functional
[7] = Downregulation of RNA polymerase 2 CTD phosphorylation at Ser5 residue in human Jurkat cells at 2.5 uM incubated for 6 hrs by immunoblotting analysis; assay type: functional
[8] = biological target: Serine/threonine-protein kinase 16 (Homo sapiens) (UniProt O75716); test: Inhibition of ADP(ATP)-biotin probe binding to MPSK1 in human Kelly cells at 1 uM incubated for 6 hrs by KiNativ profiling analysis; assay type: cell-based
[9] = biological target: T1, Cyclin-dependent kinase 12/13 (Homo sapiens); test: Inhibition of CDK12/13 in human Jurkat cells assessed as BRCA2 gene expression at 0.5 to 1 uM incubated for 4 hrs by RT-qPCR analysis; assay type: cell-based; set-up: scale not given: the % may be the effect or the level left; details: dose 0.5-1 µM
[10] = biological target: Mitogen-activated protein kinase 9 (Homo sapiens) (UniProt P45984); test: Inhibition of ADP(ATP)-biotin probe binding to JNK2 in human Kelly cells at 1 uM incubated for 6 hrs by KiNativ profiling analysis; assay type: cell-based
[11] = biological target: Cyclin-dependent kinase 7/ cyclin H (Homo sapiens, UniProt P50613); test: Inhibition of CDK7/Cyclin H (unknown origin); assay type: protein-complex assay
[12] = biological target: Cyclin-dependent kinase 12 (Homo sapiens) (UniProt Q9NYV4); test: Binding affinity to CDK12 in CDK12/CyclinK complex (unknown origin) assessed as increase in CDK12 mass at 10-fold excess concentration incubated for 1 hr by LC-MS analysis
[13] = biological target: Mitogen-activated protein kinase 8 (Homo sapiens) (UniProt P45983); test: Inhibition of ADP(ATP)-biotin probe binding to JNK1 in human Kelly cells at 1 uM incubated for 6 hrs by KiNativ profiling analysis; assay type: cell-based
[14] = Downregulation of RNA polymerase 2 CTD phosphorylation at Ser7 residue in human Jurkat cells at 2.5 uM incubated for 6 hrs by immunoblotting analysis; assay type: functional
[15] = Antiproliferative activity against human TC71 cells assessed as reduction in cell viability; assay type: functional, cell-based; details: TC-71
[16] = biological target: Cyclin-dependent kinase 7 (Homo sapiens) (UniProt P50613); test: Inhibition of THZ1-biotin binding from CDK7 in human Jurkat cells at 500 nM incubated for 6 hrs by CyclinH antibody based competitive pull down assay; assay type: cell-based
Chain of Cyclin-dependent kinase 7 (Homo sapiens) (P50613 whole entry): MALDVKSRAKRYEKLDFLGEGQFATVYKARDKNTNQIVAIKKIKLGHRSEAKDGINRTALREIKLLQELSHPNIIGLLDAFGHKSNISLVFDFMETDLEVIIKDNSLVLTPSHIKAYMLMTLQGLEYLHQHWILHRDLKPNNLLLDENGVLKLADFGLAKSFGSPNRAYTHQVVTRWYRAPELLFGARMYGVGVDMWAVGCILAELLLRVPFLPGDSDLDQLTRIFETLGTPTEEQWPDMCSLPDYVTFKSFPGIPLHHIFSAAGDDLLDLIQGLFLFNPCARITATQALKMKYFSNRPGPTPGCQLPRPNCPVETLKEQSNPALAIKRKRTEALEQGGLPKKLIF

[17] = biological target: T1, Cyclin-dependent kinase 12/13 (Homo sapiens); test: Inhibition of CDK12/13 in human jurkat cells assessed as reduction in RNA polymerase 2 CTD phosphorylation at Ser2 residue at 0.5 uM measured after 6 hrs by immunoblotting analysis; assay type: cell-based
TC-71 = test: Antitumor activity against human TC71 cells xenografted in nude mouse assessed as suppression of tumor growth at 10 mg/kg, ip for 21 days by caliper analysis; assay type: functional, organism-based; details: time 21.0 day
[18] = AUClast in Swiss albino mouse at 3 mg/kg, iv measured upto 24 hrs by LC-MS/MS analysis; assay type: ADME, organism-based; set-up: route intravenous, dose 3 mg/kg, time <=24; details: in vivo
[19] = biological target: T1, Cyclin-dependent kinase 12/13 (Homo sapiens); test: Inhibition of CDK12/13 in human jurkat cells assessed as reduction in RNA polymerase 2 CTD phosphorylation at Ser2 residue at 1 uM measured after 6 hrs by immunoblotting analysis; assay type: cell-based
[20] = Selectivity ratio of IC50 for human Kelly cells harboring CDK12 C1039F mutant to IC50 for human Kelly cells harboring wild type CDK12; assay type: functional
[21] = Cmax in Swiss albino mouse at 3 mg/kg, iv measured upto 24 hrs by LC-MS/MS analysis; assay type: ADME, organism-based; set-up: route intravenous, dose 3 mg/kg, time <=24; details: in vivo
[22] = Cmax in Swiss albino mouse at 10 mg/kg, po measured upto 24 hrs by LC-MS/MS analysis; assay type: ADME, organism-based; set-up: route oral, dose 10 mg/kg, time <=24; details: in vivo
[23] = biological target: Cyclin-dependent kinase 7 (Homo sapiens) (UniProt P50613); test: Inhibition of THZ1-biotin binding from CDK7 in human Jurkat cells at 5 uM incubated for 6 hrs by CyclinH antibody based competitive pull down assay; assay type: cell-based
[24] = Metabolic stability in mouse liver microsomes assessed as half life; assay type: ADME, Microsome
[25] = biological target: T1, Cyclin-dependent kinase 12/13 (Homo sapiens); test: Inhibition of THZ1-biotin binding from CDK12/13 in human Jurkat cells at 500 nM incubated for 6 hrs by CyclinK antibody based competitive pull down assay; assay type: cell-based
[26] = biological target: Ribosomal protein S6 kinase alpha-1 (Homo sapiens) (UniProt Q15418); test: Inhibition of ADP(ATP)-biotin probe binding to RSK1 domain 1 in human Kelly cells at 1 uM incubated for 6 hrs by KiNativ profiling analysis; assay type: cell-based
[27] = Half life in Swiss albino mouse at 3 mg/kg, iv measured upto 24 hrs by LC-MS/MS analysis; assay type: ADME, organism-based; details: in vivo
[28] = biological target: T1, Cyclin-dependent kinase 12/13 (Homo sapiens); test: Inhibition of CDK12/13 in human jurkat cells assessed as reduction in RNA polymerase 2 CTD phosphorylation at Ser2 residue at 5 uM measured after 6 hrs by immunoblotting analysis; assay type: cell-based
[29] = biological target: T2, DNA-dependent protein kinase catalytic subunit; test: Inhibition of ADP(ATP)-biotin probe binding to DNAPK in human Kelly cells at 1 uM incubated for 6 hrs by KiNativ profiling analysis; assay type: cell-based
[30] = Downregulation of RNA polymerase 2 CTD phosphorylation at Ser5 residue in human Jurkat cells at 1 uM incubated for 6 hrs by immunoblotting analysis; assay type: functional
[31] = biological target: Mitogen-activated protein kinase 10 (Homo sapiens) (UniProt P53779); test: Inhibition of ADP(ATP)-biotin probe binding to JNK3 in human Kelly cells at 1 uM incubated for 6 hrs by KiNativ profiling analysis; assay type: cell-based
Chain of Mitogen-activated protein kinase 10 (Homo sapiens) (P53779 whole entry): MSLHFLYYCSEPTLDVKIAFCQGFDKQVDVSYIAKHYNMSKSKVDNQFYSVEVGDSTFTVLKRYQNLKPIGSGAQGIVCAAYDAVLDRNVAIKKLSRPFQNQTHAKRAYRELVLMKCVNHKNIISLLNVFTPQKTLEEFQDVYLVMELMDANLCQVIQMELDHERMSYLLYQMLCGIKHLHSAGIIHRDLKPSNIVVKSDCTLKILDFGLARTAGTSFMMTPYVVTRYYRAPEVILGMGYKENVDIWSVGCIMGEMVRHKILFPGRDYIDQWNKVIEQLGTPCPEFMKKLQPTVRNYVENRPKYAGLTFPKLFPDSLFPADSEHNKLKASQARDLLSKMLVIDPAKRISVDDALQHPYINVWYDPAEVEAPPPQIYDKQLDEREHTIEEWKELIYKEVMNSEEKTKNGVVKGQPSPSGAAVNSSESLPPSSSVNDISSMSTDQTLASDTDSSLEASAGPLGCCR

Cyclin-K (Homo sapiens) = Cyclin-K (Homo sapiens) (UniProt O75909); test: Binding affinity to CyclinK in CDK12/CyclinK complex (unknown origin) at 10-fold excess concentration incubated for 1 hr by LC-MS analysis
[32] = Downregulation of RNA polymerase 2 CTD phosphorylation at Ser5 residue in human Jurkat cells at 0.5 uM incubated for 6 hrs by immunoblotting analysis; assay type: functional

`CN(C)C/C=C/C(=O)Nc1ccc(O[C@@H]2CCC[C@@H](Nc3ncc(Cl)c(-c4c[nH]c5ccccc45)n3)C2)cc1` showed an IC50 (CDK12/Cyclin K) of 156 nM, an inhibition [1] of 41.6% and a Vdss [2] of 3.9 L/kg. For the same compound, the inhibition [3] was 87%, the IC50 [4] was > 10000 nM and the Activity [5] was “Toxic”. It also gave an inhibition at 0.5 µM [6] of 0%, an inhibition at 2.5 µM [7] of 47% and an inhibition [8] of 42.4%. The Activity [9] was 30%, the inhibition [10] was 45.9% and the IC50 [11] was 187 nM. For the same compound, the Activity [12] was “Active”, the inhibition [13] was 45.9% and the inhibition at 2.5 µM [14] was 58%. The IC50 [15] was 160 nM, the inhibition [16] was “inactive” and the inhibition [17] was 45%. The Activity (TC-71) was “Active”, the AUClast [18] was 1832 ng·h/mL and the inhibition [19] was 78%. The “Ratio IC50” value [20] was 5, the Cmax [21] was 1511 ng/mL and the Cmax [22] was 272 ng/mL. The inhibition [23] was “Active”, the t1/2 [24] was 8 min and the inhibition [25] was “Active”. The inhibition [26] was 35.4%, the t1/2 [27] was 2.2 h and the inhibition [28] was 89%. The inhibition [29] was 38.3%, the inhibition at 1 µM [30] was 32% and the inhibition [31] was 45.9%. The Activity (Cyclin-K (Homo sapiens)) was “inactive” and the inhibition at 0.5 µM [32] was 0%.
